Measured values from paper PMC10714399, “Open Source Antibiotics: Simple Diarylimidazoles Are Potent against Methicillin-Resistant Staphylococcus aureus” (ACS Infectious Diseases, 2023).
≈ marks a conversion by molar mass, not a printed value. Where “and” joins values, the source holds several entries; their conditions need not be identical. Identical values can stand only once. Like-named read-outs stand apart in the source and are kept apart here.

How the values were obtained:
[1] = Rat hepatocyte intrinsic clearance; type: in vitro ADME; details: rat hepatocytes, NEU
Description: (§1) To guide our initial SAR exploration work, we obtained liver microsomal intrinsic clearance data for 5 of the 18 compounds assayed by CO-ADD (Supporting Information - CDCO Report and Supporting Information - Biology). We then acquired intrinsic clearance (CLint), plasma protein binding (PPB), and solubility data on further compounds throughout the SAR campaign (Supporting Information - Biology, Tables S3 and S4).
(§2) Table S4. ADME and Pharmacokinetics: compounds only appearing in the Supplementary […]
(§3) MRSA Aqueous HLM CLint Rat Hep CLint
(§4) Cmpd MIC Solubility Human PPB (%) (µL/min/mg (µL/min/10x6 LogD7.4
(§5) (µg/mL) (µM) protein) cells)
(§6) ADME and toxicity for compounds were measured according to procedures outlined in the manuscript submitted in parallel to this one;2 other procedures were used for those compounds analysed by Monash University (in vitro ADME) or UCL (toxicity), both described in the main

[2] = Human liver microsome intrinsic clearance; type: in vitro ADME; details: human liver microsomes, NEU
Description: as §1, §2, §3, §4, §5, §6

Aqueous solubility = type: physicochemical; details: thermodynamic from solid
Description: To guide our initial SAR exploration work, we obtained liver microsomal intrinsic clearance data for 5 of the 18 compounds assayed by CO-ADD (Supporting Information - CDCO Report and Supporting Information - Biology). We then acquired intrinsic clearance (CLint), plasma protein binding (PPB), and solubility data on further compounds throughout the SAR campaign (Supporting Information - Biology, Tables S3 and S4). […] The more polar compounds (lower LogD) had reduced PPB and were more metabolically stable.
as §2, §3, §4, §5, §6

[3] = tested on: Staphylococcus aureus NCTC 13373 (mecA-positive; methicillin-resistant); test: In vitro antibacterial activity, MIC (UCL School of Pharmacy assay), MRSA; type: cell-based; details: for MIC: Staphylococcus aureus
Method in brief: (§7)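 Each organism was taken from overnight tryptone soya agar, suspended in PBS at A600 0.1, diluted 1:100 in isosensitest broth and added to serially diluted compound (32 to 0.03 μg/mL).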

[4] = Human plasma protein binding (PPB); type: in vitro ADME; details: human, plasma
Description: as §1, §2, §3, §4, §5, §6

[5] = tested on: MRC-5SV2 (human lung fibroblast cell line); test: Toxicity against MRC-5SV2; type: cell-based
Method: as §6

[6] = tested on: Enterococcus faecalis ATCC 51299 (vanA-positive; vancomycin-resistant); test: In vitro antibacterial activity, MIC (UCL), VRE; type: cell-based
Method: Staphylococcus aureus NCTC 13373 (mecA-positive; methicillin-resistant, NCTC 13373) was supplied by the National Collection of Type Cultures (NCTC), Public Health England, United Kingdom. Other organisms, S. aureus ATCC 25923 (methicillin-susceptible) and Enterococcus faecalis ATCC 51299 (vanA-positive; vancomycin-resistant), were obtained from the American Type Culture Collection (ATCC) via LGC Standards, UK. A suspension of each organism was prepared from an overnight plate culture (tryptone soya agar) in phosphate-buffered saline (PBS) and adjusted to an absorbance reading at 600 nm of 0.1, which is approximately equivalent to 1 × 10^8 colony-forming units (CFU) per mL. The cultures were further diluted 1:100 in isosensitest broth (Oxoid, United Kingdom) before 100 μL was used to inoculate each well of a 96-well plate that contained diluted samples of the OSA series. Compounds were evaluated over a 2-fold dilution range from 32 to 0.03 μg/mL. Stocks of the samples were prepared in 100% DMSO at […] before being diluted in isosenstitest broth. The highest concentration of DMSO present was 2%, which has been previously shown not to inhibit the growth of the microorganisms (data not shown). […] Vancomycin was used as a quality control compound.

[7] = tested on: PMM (primary mouse macrophages); test: Toxicity against PMM; type: cell-based
Method: as §6

[8] = tested on: S. aureus ATCC 25923 (methicillin-susceptible); test: In vitro antibacterial activity, MIC (UCL), MSSA; type: cell-based, Staphylococcus aureus; details: for MIC: Staphylococcus aureus
Method in brief: as §7

[9] = NEU, read-out: Aqueous Solubility (NEU)
[10] = human plasma, NEU, read-out: Human PPB (NEU) (converted)

SMILES	MRSA MIC [3]	MRC5 TC50 [5] [µg/mL]	PMM TC50 [7] [µg/mL]	MSSA MIC [8] [µg/mL]	also measured
c1ccc(-c2nc3n(c2-c2ccc4sc5ccccc5c4c2)CCC3)nc1 [OSA_000831]	–	–	–	–	Rat Hep CLint (NEU) [1]: 151 uL/min/10x6 cells; HLM CLint (NEU) [2]: 42.6 uL/min/mg protein; solubility (Aqueous solubility; [9]): 3 µM (≈ 1.1 µg/mL); MIC ([3]; UCL, read-out: MRSA MIC (UCL)): 8 µg/mL (≈ 21.8 µM); fraction unbound [4, 10]: 0.0008
Cc1nc2cc(-c3c(-c4ccccn4)nc4n3CCC4)ccc2s1 [OSA_000836]	–	–	–	–	Rat Hep CLint (NEU) [1]: 49.1 uL/min/10x6 cells; HLM CLint (NEU) [2]: 34.1 uL/min/mg protein; solubility (Aqueous solubility; [9]): 10 µM (≈ 3.32 µg/mL); MIC ([3]; UCL, read-out: MRSA MIC (UCL)): 32 µg/mL (≈ 96.3 µM); fraction unbound [4, 10]: 0.098
Fc1cccc(-c2c(-c3ccccn3)nc3n2CCC3)c1 [OSA_000872]	–	–	–	–	MIC ([3]; UCL, read-out: MRSA MIC (UCL)): > 32 µg/mL; MRC5 TC50 ([5]; MRC5 cells): 7.2 µM; MIC ([6]; read-out: VRE MIC (UCL)): > 32 µg/mL; PMM TC50 ([7]; PMM): 54.63 µM
[2H]C([2H])([2H])N(c1ccc(F)cc1)c1c(-c2ccccn2)nc2ccccn12 [OSA_001002]	–	–	–	–	MIC ([8]; read-out: MSSA MIC (UCL)): 16 µg/mL (≈ 49.8 µM); solubility (Aqueous solubility; [9]): 116 µM (≈ 37.3 µg/mL); MIC ([3]; UCL, read-out: MRSA MIC (UCL)): 16 µg/mL (≈ 49.8 µM)
COc1ccc(-c2nc3ccccn3c2Nc2ccc(F)cc2)nc1 [OSA_001022]	–	–	–	–	MIC ([8]; UCL assay, read-out: MSSA MIC (ug/mL) (UCL)): 8 µg/mL (≈ 23.9 µM); solubility (Aqueous solubility; NEU, read-out: Aqueous Solubility (uM) (NEU)): 3 µM (≈ 1 µg/mL); MIC ([3]; UCL assay, read-out: MRSA MIC (ug/mL) (UCL)): 8 µg/mL (≈ 23.9 µM)
COc1ccn2c(Nc3ccccc3F)c(-c3cnn(C)c3)nc2c1 [compound 855]	> 32 µg/mL and 32 µg/mL	21.6	21.6	–	VRE MIC [6]: > 32 µg/mL
COc1ccn2cc(-c3ccccn3)nc2c1 [compound 856]	> 32 µg/mL and 32 µg/mL	11.6	14.4	–	VRE MIC [6]: > 32 µg/mL
COc1ccn2c(-c3ccc(F)cc3)c(-c3ccccn3)nc2c1 [compound 858]	16 µg/mL	1.2	2.6	–	VRE MIC [6]: > 32 µg/mL
COc1ccn2c(-c3ccccc3)c(-c3ccccn3)nc2c1 [compound 860]	8 µg/mL	1.2	2.4	–	VRE MIC [6]: 32 µg/mL
Fc1cccc(-c2c(-c3ccccn3)nc3n2CCC3)c1 [compound 872]	32 µg/mL	2.0	15.3	–	MIC ([3]; read-out: MRSA MIC): > 32 µg/mL; MIC ([6]; read-out: VRE MIC): > 32 µg/mL
Clc1ccc(-c2c(-c3ccccn3)nc3n2CCC3)cc1 [compound 875]	–	1.6	2.4	–	MIC ([3]; read-out: MRSA MIC): 4 µg/mL (≈ 13.5 µM); MIC ([6]; read-out: VRE MIC): 16 µg/mL (≈ 54.1 µM)
N#Cc1ccc(-c2c(-c3ccccn3)nc3n2CCC3)cc1 [compound 975]	–	7.4	18.3	–	solubility (Aqueous solubility; read-out: Aqueous Solubility): 38 µM (≈ 10.9 µg/mL); MIC ([3]; 16 h, read-out: MRSA MIC): 4 µg/mL (≈ 14 µM); MIC ([3]; read-out: MRSA MIC): 4 µg/mL (≈ 14 µM); fraction unbound ([4]; read-out: Human PPB (converted)): 0.29; MIC ([6]; read-out: VRE MIC): 16 µg/mL (≈ 55.9 µM)
Cc1ccc2nc(-c3ccccc3)c(CNc3ccc(F)cc3)n2c1 [compound 1027]	> 32 µg/mL and 32 µg/mL	21.2	21.2	> 32	–
Cc1ccc2nc(-c3ccccc3)c(CNc3cccc(C(F)(F)F)c3)n2c1 [compound 1028]	> 32 µg/mL and 32 µg/mL	24.4	24.4	> 32	–
CCCCN(Cc1c(-c2ccccc2)nc2ccc(C)cn12)c1cccc(C(F)(F)F)c1 [compound 1029]	8 µg/mL	0.5	3.5	8	–
Cc1ccn2cc(-c3ccccn3)nc2c1 [compound 1030]	> 32 µg/mL and 32 µg/mL	4.6	13.4	> 32	–
Cc1ccn2c(CN(CC(C)C)c3cccc(C(F)(F)F)c3)c(-c3ccccn3)nc2c1 [compound 1033]	> 32 µg/mL and 32 µg/mL	4.3	14.0	> 32	–
FC(F)(F)c1ccc(-c2c(-c3ccccn3)nc3n2CCC3)cc1 [compound 1052]	–	2.7	10.5	–	MIC ([8]; read-out: MSSA MIC): 16 µg/mL (≈ 48.6 µM); MIC ([3]; read-out: MRSA MIC): 16 µg/mL (≈ 48.6 µM)
Fc1ccc(-c2c(-c3ccccn3)nc3n2CCC3)cc1 [compound 1053]	> 32 µg/mL and 32 µg/mL	2.1	8.9	> 32	–
c1ccc(-c2nc3n(c2-c2ccncc2)CCC3)nc1 [compound 1072]	> 32 µg/mL and 32 µg/mL	16.8	16.8	> 32	–
Fc1cc(-c2c(-c3ccccn3)nc3n2CCC3)ccn1 [compound 1073]	> 32 µg/mL and 32 µg/mL	8.6	9.0	> 32	–
Nc1ccc(-c2c(-c3ccccn3)nc3n2CCC3)cc1 [compound 1074]	> 32 µg/mL and 32 µg/mL	1.6	2.2	> 32	–
N#Cc1ccc(-c2c(-c3ccccn3)nc3n2CCC3)cn1 [compound 1075]	> 32 µg/mL and 32 µg/mL	18.4	18.4	> 32	–
COc1cc(-c2c(-c3ccccn3)nc3n2CCC3)ccc1C#N [compound 1076]	> 32 µg/mL and 32 µg/mL	8.8	20.2	> 32	–
N#Cc1ccc(-c2c(-c3ccccn3)nc3n2CCC3)cc1C(F)(F)F [compound 1077]	> 32 µg/mL and 32 µg/mL	22.7	22.7	> 32	–
